The source made the active and inactive calls. No cut-off for these calls is given here.
Tests used:
Lactuca sativa [1] = assay: Bleaching activity against Lactuca sativa cv. Sacramento (lettuce) seedlings assessed as bleaching ratings at 1 ppm incubated for 4 days at 25 degC under 12 hr photoperiod; type: functional
Lactuca sativa [2] = assay: Bleaching activity against Lactuca sativa cv. Sacramento (lettuce) seedlings assessed as bleaching ratings at 3 ppm incubated for 4 days at 25 degC under 12 hr photoperiod; type: functional
Lactuca sativa [3] = assay: Bleaching activity against Lactuca sativa cv. Sacramento (lettuce) seedlings assessed as bleaching ratings at 5 ppm incubated for 4 days at 25 degC under 12 hr photoperiod; type: functional
Lactuca sativa [4] = assay: Bleaching activity against Lactuca sativa cv. Sacramento (lettuce) seedlings assessed as bleaching ratings at 10 ppm incubated for 4 days at 25 degC under 12 hr photoperiod; type: functional
Lactuca sativa [5] = assay: Bleaching activity against Lactuca sativa cv. Sacramento (lettuce) seedlings assessed as bleaching ratings at 25 ppm incubated for 4 days at 25 degC under 12 hr photoperiod; type: functional
Lactuca sativa [6] = assay: Bleaching activity against Lactuca sativa cv. Sacramento (lettuce) seedlings assessed as bleaching ratings at 50 ppm incubated for 4 days at 25 degC under 12 hr photoperiod; type: functional
Radish [7] = assay: Reduction in phytoene accumulation in Raphanus sativus cv. Osaka (radish) seedlings at 100 uM incubated for 4 days at 25 degC under dark conditions relative to untreated control; type: functional, organism-based
Radish [8] = assay: Induction of phytoene accumulation in Raphanus sativus cv. Osaka (radish) seedlings at 10 to 100 uM incubated for 4 days at 25 degC under dark conditions; type: functional, organism-based
Radish [9] = assay: Induction of phytoene accumulation in Raphanus sativus cv. Osaka (radish) seedlings at 50 uM incubated for 4 days at 25 degC under dark conditions relative to untreated control; type: functional
Radish [10] = assay: Reduction in beta-carotene content in Raphanus sativus cv. Osaka (radish) seedlings at 10 to 100 uM incubated for 4 days at 25 degC under dark conditions; type: functional, organism-based
Radish [11] = assay: Reduction in chlorophyll content in Raphanus sativus cv. Osaka (radish) seedlings at 10 uM incubated for 4 days at 25 degC under dark conditions; type: functional, organism-based
Radish [12] = assay: Reduction in carotenoid content in Raphanus sativus cv. Osaka (radish) seedlings at 10 uM incubated for 4 days at 25 degC under dark conditions; type: functional, organism-based
Radish [13] = assay: Reduction in chlorophyll content in Raphanus sativus cv. Osaka (radish) seedlings at 10 uM incubated for 4 days at 25 degC under 12 hr photoperiod by spectrophotometry; type: functional; design: scale not given: the % may be the effect or the level left
Radish [14] = assay: Reduction in carotenoid content in Raphanus sativus cv. Osaka (radish) seedlings at 10 uM incubated for 4 days at 25 degC under 12 hr photoperiod; type: functional; design: scale not given: the % may be the effect or the level left
Radish [15] = assay: Reduction in chlorophyll content in Raphanus sativus cv. Osaka (radish) seedlings at 10 to 100 uM incubated for 4 days at 25 degC under 12 hr photoperiod by spectrophotometry; type: functional, organism-based
Radish [16] = assay: Reduction in carotenoid content in Raphanus sativus cv. Osaka (radish) seedlings at 10 to 100 uM incubated for 4 days at 25 degC under 12 hr photoperiod; type: functional, organism-based
Radish [17] = assay: Reduction in chlorophyll content in Raphanus sativus cv. Osaka (radish) seedlings at 100 uM incubated for 4 days at 25 degC under 12 hr photoperiod by spectrophotometry; type: functional, organism-based
Radish [18] = assay: Reduction in carotenoid content in Raphanus sativus cv. Osaka (radish) seedlings at 100 uM incubated for 4 days at 25 degC under 12 hr photoperiod; type: functional, organism-based

Compound	Activity (Lactuca sativa [1])	Activity (Lactuca sativa [2])	Activity (Lactuca sativa [3])	Activity (Lactuca sativa [4])	Activity (Lactuca sativa [5])	Activity (Lactuca sativa [6])	further results
C#CCSc1nncn1-c1cccc(C(F)(F)F)c1	0	1	2	3	3	–	–
C#CCSc1nncn1-c1ccc(Cl)c(Cl)c1	0	2	3	4	4	–	–
C#CCSc1nncn1-c1ccccc1	0	0	0	1	3	4	–
C#CCSc1nncn1-c1ccc(Cl)cc1	0	1	2	3	4	–	Activity (Radish [7]): Active; Activity (Radish [8]): Active; fold change (FC) (Radish [9]): 150; Activity (Radish [10]): Active; Activity (Radish [11]): Active; Activity (Radish [12]): Active; Activity (Radish [13]): 60%; Activity (Radish [14]): 60%; Activity (Radish [15]): Active; Activity (Radish [16]): Active
Sc1nncn1-c1ccccc1	–	–	–	0	0	0	–
CCCSc1nncn1-c1ccccc1	–	–	–	1	2	4	–
CCCCSc1nncn1-c1ccccc1	–	–	–	0	1	2	–
C=CCSc1nncn1-c1ccccc1	–	–	–	0	0	0	–
COCSc1nncn1-c1ccccc1	–	–	–	0	0	0	–
C#CCSc1nncn1-c1ccc(C(F)(F)F)cc1	0	1	2	3	3	–	–
CCSc1nncn1-c1ccccc1	–	–	–	1	2	3	–
CSc1nncn1-c1ccccc1	–	–	–	0	0	0	–
c1ccc(CSc2nncn2-c2ccccc2)cc1	–	–	–	1	1	2	–
C#CCSc1nncn1-c1ccc(OCC)cc1	0	1	2	3	3	–	–
CCCS(=O)(=O)c1nncn1-c1ccccc1	–	–	–	0	0	0	–
C#CCSc1nncn1-c1ccc(C)cc1	0	1	3	3	3	–	–
C#CCSc1nncn1-c1cccc(Cl)c1	0	2	3	3	4	–	Activity (Radish [8]): Active; Activity (Radish [10]): Active; Activity (Radish [11]): Active; Activity (Radish [12]): Active; Activity (Radish [13]): 60%; Activity (Radish [14]): 60%; Activity (Radish [15]): Active; Activity (Radish [16]): Active
C#CCSc1nncn1-c1ccccc1Cl	0	0	0	0	0	–	Activity (Radish [17]): inactive; Activity (Radish [18]): inactive

— ChEMBL document CHEMBL3045588, “Synthesis and Bleaching Activity of 3-Propargylthio-4-(substituted phenyl)-4H-1, 2, 4-triazoles” (1995)
